Data: the NIST ThermoML archive (doi:10.1021/je501041r)
± gives the expanded uncertainty stated by the source.

Assay: xn = mol fraction of the nth substance listed
Conditions: 101 kPa, Liquid; for viscosity: Capillary tube (Ostwald / Ubbelohde) method; for mass density: Vibrating tube method

CCCCCCO [hexan-1-ol] + CC(C)CC(C)(C)C
Conditions | mass density [kg/m3] | viscosity [mPa·s]
298.15 K, x2 = 0 | 815.3 ± 2 | 4.605 ± 0.056
298.15 K, x2 = 0.1001 | 799.99 ± 2 | 3.428 ± 0.042
298.15 K, x2 = 0.2 | 785 ± 2 | 2.565 ± 0.031
298.15 K, x2 = 0.3001 | 770.65 ± 2 | 1.933 ± 0.023
298.15 K, x2 = 0.4 | 756.92 ± 2 | 1.452 ± 0.017
298.15 K, x2 = 0.5 | 743.89 ± 2 | 1.124 ± 0.013
298.15 K, x2 = 0.6001 | 731.33 ± 2 | 0.899 ± 0.011
298.15 K, x2 = 0.7001 | 719.63 ± 2 | 0.737 ± 0.009
298.15 K, x2 = 0.7997 | 708.41 ± 2 | 0.621 ± 0.007
298.15 K, x2 = 0.8998 | 697.73 ± 2 | 0.536 ± 0.006
298.15 K, x2 = 0.9199 | 695.61 ± 2 | –
298.15 K, x2 = 0.9396 | 693.66 ± 2 | –
298.15 K, x2 = 0.9595 | 691.69 ± 2 | –
303.15 K, x2 = 0 | 811.71 ± 2 | 3.944 ± 0.048
303.15 K, x2 = 0.1001 | 796.32 ± 2 | 2.958 ± 0.036
303.15 K, x2 = 0.2 | 781.24 ± 2 | 2.236 ± 0.027
303.15 K, x2 = 0.3001 | 766.82 ± 2 | 1.728 ± 0.021
303.15 K, x2 = 0.4 | 753.03 ± 2 | 1.306 ± 0.016
303.15 K, x2 = 0.5 | 739.93 ± 2 | 1.051 ± 0.013
303.15 K, x2 = 0.6001 | 727.33 ± 2 | 0.829 ± 0.01
303.15 K, x2 = 0.7001 | 715.58 ± 2 | 0.688 ± 0.008
303.15 K, x2 = 0.7997 | 704.3 ± 2 | 0.582 ± 0.007
303.15 K, x2 = 0.8998 | 693.58 ± 2 | 0.504 ± 0.006
303.15 K, x2 = 0.9199 | 691.45 ± 2 | –
303.15 K, x2 = 0.9396 | 689.52 ± 2 | –
303.15 K, x2 = 0.9595 | 687.54 ± 2 | –
308.15 K, x2 = 0 | 808.09 ± 2 | 3.414 ± 0.042
308.15 K, x2 = 0.1001 | 792.61 ± 2 | 2.592 ± 0.032
308.15 K, x2 = 0.2 | 777.46 ± 2 | 1.965 ± 0.024
308.15 K, x2 = 0.3001 | 762.96 ± 2 | 1.536 ± 0.018
308.15 K, x2 = 0.4 | 749.11 ± 2 | 1.18 ± 0.014
308.15 K, x2 = 0.5 | 735.95 ± 2 | 0.941 ± 0.011
308.15 K, x2 = 0.6001 | 723.29 ± 2 | 0.775 ± 0.009
308.15 K, x2 = 0.7001 | 711.48 ± 2 | 0.643 ± 0.008
308.15 K, x2 = 0.7997 | 700.16 ± 2 | 0.546 ± 0.007
308.15 K, x2 = 0.8998 | 689.39 ± 2 | 0.476 ± 0.006
308.15 K, x2 = 0.9199 | 687.26 ± 2 | –
308.15 K, x2 = 0.9396 | 685.32 ± 2 | –
308.15 K, x2 = 0.9595 | 683.35 ± 2 | –
313.15 K, x2 = 0 | 804.43 ± 2 | 2.96 ± 0.036
313.15 K, x2 = 0.1001 | 788.88 ± 2 | 2.275 ± 0.028
313.15 K, x2 = 0.2 | 773.65 ± 2 | 1.745 ± 0.021
313.15 K, x2 = 0.3001 | 759.07 ± 2 | 1.361 ± 0.016
313.15 K, x2 = 0.4 | 745.15 ± 2 | 1.071 ± 0.013
313.15 K, x2 = 0.5 | 731.93 ± 2 | 0.861 ± 0.01
313.15 K, x2 = 0.6001 | 719.21 ± 2 | 0.721 ± 0.009
313.15 K, x2 = 0.7001 | 707.36 ± 2 | 0.596 ± 0.007
313.15 K, x2 = 0.7997 | 695.98 ± 2 | 0.512 ± 0.006
313.15 K, x2 = 0.8998 | 685.18 ± 2 | 0.449 ± 0.005
313.15 K, x2 = 0.9199 | 683.03 ± 2 | –
313.15 K, x2 = 0.9396 | 681.09 ± 2 | –
313.15 K, x2 = 0.9595 | 679.12 ± 2 | –
318.15 K, x2 = 0 | 800.75 ± 2 | 2.581 ± 0.032
318.15 K, x2 = 0.1001 | 785.1 ± 2 | 1.997 ± 0.024
318.15 K, x2 = 0.2 | 769.8 ± 2 | 1.577 ± 0.019
318.15 K, x2 = 0.3001 | 755.15 ± 2 | 1.23 ± 0.015
318.15 K, x2 = 0.4 | 741.15 ± 2 | 0.976 ± 0.012
318.15 K, x2 = 0.5 | 727.88 ± 2 | 0.807 ± 0.01
318.15 K, x2 = 0.6001 | 715.1 ± 2 | 0.658 ± 0.008
318.15 K, x2 = 0.7001 | 703.19 ± 2 | 0.559 ± 0.007
318.15 K, x2 = 0.7997 | 691.77 ± 2 | 0.483 ± 0.006
318.15 K, x2 = 0.8998 | 680.92 ± 2 | 0.424 ± 0.005
318.15 K, x2 = 0.9199 | 678.78 ± 2 | –
318.15 K, x2 = 0.9396 | 676.83 ± 2 | –
318.15 K, x2 = 0.9595 | 674.86 ± 2 | –
323.15 K, x2 = 0 | 797.02 ± 2 | 2.251 ± 0.028
323.15 K, x2 = 0.1001 | 781.29 ± 2 | 1.778 ± 0.022
323.15 K, x2 = 0.2 | 765.91 ± 2 | 1.391 ± 0.017
323.15 K, x2 = 0.3001 | 751.18 ± 2 | 1.113 ± 0.013
323.15 K, x2 = 0.4 | 737.12 ± 2 | 0.894 ± 0.011
323.15 K, x2 = 0.5 | 723.78 ± 2 | 0.747 ± 0.009
323.15 K, x2 = 0.6001 | 710.95 ± 2 | 0.623 ± 0.007
323.15 K, x2 = 0.7001 | 698.99 ± 2 | 0.523 ± 0.006
323.15 K, x2 = 0.7997 | 687.52 ± 2 | 0.455 ± 0.006
323.15 K, x2 = 0.8998 | 676.63 ± 2 | 0.402 ± 0.005
323.15 K, x2 = 0.9199 | 674.48 ± 2 | –
323.15 K, x2 = 0.9396 | 672.54 ± 2 | –
323.15 K, x2 = 0.9595 | 670.56 ± 2 | –
